Blank lines part the entries; values can stand above or below the compound they belong to. Calls of active or inactive are those of the source.
Columns and labels:
[1] = biological target: T1, Interleukin-1 receptor-associated kinase 3 (Homo sapiens, UniProt Q9Y616)
T1 sequence (Q9Y616 whole entry): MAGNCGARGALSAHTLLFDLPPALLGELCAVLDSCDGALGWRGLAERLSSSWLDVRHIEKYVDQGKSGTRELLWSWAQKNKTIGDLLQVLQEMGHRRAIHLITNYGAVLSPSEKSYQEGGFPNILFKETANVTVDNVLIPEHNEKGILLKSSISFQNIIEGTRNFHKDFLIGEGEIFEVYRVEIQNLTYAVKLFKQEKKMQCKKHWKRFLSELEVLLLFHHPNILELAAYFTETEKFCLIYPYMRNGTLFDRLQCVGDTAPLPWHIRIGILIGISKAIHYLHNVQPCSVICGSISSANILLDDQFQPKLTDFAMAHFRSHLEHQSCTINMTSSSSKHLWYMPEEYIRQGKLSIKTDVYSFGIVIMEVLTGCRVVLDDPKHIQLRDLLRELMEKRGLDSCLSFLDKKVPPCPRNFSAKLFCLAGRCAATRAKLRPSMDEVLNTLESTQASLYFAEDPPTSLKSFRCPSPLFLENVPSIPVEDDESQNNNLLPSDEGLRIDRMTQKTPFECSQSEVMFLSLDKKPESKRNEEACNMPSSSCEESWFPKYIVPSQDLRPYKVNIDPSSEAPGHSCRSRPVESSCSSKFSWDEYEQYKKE

[2] = biological target: T2, Tyrosine-protein kinase Tec (Homo sapiens, UniProt P42680)
T2 sequence (P42680 whole entry): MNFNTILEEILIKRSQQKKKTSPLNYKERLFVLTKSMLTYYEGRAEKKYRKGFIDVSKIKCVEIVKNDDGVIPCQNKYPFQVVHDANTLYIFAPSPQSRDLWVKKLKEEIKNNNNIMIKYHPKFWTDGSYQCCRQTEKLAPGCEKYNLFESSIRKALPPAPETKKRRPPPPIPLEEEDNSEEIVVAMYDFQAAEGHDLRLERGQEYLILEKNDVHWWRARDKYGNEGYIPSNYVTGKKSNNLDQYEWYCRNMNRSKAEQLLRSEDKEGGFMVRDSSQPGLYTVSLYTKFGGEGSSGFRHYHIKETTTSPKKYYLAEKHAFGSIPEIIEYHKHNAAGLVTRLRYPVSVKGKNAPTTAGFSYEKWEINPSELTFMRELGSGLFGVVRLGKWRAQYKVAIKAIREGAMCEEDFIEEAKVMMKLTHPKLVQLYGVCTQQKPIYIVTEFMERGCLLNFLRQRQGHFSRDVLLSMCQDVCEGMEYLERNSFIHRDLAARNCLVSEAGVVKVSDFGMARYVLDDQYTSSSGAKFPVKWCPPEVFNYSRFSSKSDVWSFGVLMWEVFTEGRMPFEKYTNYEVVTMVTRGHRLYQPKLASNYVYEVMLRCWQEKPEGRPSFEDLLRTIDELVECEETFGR

[3] = biological target: Non-receptor tyrosine-protein kinase TYK2 (Homo sapiens, UniProt P29597)
[4] = biological target: T3, NUAK family SNF1-like kinase 2 (Homo sapiens, UniProt Q9H093)
T3 sequence (Q9H093 whole entry): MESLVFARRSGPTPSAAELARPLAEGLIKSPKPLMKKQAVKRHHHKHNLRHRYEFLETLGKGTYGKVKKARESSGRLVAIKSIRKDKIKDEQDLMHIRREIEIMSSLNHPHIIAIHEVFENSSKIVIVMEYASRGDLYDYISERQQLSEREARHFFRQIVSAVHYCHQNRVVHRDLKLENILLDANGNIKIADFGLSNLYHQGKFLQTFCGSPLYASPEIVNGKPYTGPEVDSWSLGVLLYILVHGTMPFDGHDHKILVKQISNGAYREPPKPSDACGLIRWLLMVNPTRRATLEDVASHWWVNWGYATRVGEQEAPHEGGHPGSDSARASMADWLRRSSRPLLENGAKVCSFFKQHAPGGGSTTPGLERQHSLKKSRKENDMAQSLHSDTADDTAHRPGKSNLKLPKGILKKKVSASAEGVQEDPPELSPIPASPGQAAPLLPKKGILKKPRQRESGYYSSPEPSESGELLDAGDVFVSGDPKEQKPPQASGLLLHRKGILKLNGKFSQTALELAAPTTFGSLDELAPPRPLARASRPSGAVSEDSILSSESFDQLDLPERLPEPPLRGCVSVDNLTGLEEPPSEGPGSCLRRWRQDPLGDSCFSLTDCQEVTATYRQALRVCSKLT

[5] = biological target: Ribosomal protein S6 kinase beta-1 (Homo sapiens, UniProt P23443)
[6] = biological target: T4, ATP-dependent 6-phosphofructokinase, platelet type (Homo sapiens, UniProt Q01813)
T4 sequence (Q01813 whole entry): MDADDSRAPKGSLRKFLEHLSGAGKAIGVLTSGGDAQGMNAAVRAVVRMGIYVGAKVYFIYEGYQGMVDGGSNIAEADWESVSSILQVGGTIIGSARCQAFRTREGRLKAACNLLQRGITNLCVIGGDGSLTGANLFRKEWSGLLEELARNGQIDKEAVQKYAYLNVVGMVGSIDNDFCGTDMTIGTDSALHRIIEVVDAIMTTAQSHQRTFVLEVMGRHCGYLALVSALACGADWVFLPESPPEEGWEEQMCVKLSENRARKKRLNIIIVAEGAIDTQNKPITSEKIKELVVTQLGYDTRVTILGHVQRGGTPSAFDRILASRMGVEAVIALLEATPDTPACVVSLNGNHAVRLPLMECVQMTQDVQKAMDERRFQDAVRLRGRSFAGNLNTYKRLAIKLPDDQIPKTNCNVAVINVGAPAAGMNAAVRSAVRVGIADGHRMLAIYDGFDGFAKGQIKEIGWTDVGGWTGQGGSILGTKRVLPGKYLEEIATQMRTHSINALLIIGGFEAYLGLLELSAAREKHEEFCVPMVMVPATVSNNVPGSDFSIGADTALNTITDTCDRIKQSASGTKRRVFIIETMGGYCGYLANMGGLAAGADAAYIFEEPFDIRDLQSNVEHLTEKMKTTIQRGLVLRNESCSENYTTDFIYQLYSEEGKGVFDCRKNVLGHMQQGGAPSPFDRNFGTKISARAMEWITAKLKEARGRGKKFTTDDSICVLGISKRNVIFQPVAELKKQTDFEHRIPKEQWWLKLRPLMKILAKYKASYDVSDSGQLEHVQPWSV
Further: in the data inactive means no Kd found up to 30 µM.

Non-receptor tyrosine-protein kinase TYK2, sequence (P29597 whole entry): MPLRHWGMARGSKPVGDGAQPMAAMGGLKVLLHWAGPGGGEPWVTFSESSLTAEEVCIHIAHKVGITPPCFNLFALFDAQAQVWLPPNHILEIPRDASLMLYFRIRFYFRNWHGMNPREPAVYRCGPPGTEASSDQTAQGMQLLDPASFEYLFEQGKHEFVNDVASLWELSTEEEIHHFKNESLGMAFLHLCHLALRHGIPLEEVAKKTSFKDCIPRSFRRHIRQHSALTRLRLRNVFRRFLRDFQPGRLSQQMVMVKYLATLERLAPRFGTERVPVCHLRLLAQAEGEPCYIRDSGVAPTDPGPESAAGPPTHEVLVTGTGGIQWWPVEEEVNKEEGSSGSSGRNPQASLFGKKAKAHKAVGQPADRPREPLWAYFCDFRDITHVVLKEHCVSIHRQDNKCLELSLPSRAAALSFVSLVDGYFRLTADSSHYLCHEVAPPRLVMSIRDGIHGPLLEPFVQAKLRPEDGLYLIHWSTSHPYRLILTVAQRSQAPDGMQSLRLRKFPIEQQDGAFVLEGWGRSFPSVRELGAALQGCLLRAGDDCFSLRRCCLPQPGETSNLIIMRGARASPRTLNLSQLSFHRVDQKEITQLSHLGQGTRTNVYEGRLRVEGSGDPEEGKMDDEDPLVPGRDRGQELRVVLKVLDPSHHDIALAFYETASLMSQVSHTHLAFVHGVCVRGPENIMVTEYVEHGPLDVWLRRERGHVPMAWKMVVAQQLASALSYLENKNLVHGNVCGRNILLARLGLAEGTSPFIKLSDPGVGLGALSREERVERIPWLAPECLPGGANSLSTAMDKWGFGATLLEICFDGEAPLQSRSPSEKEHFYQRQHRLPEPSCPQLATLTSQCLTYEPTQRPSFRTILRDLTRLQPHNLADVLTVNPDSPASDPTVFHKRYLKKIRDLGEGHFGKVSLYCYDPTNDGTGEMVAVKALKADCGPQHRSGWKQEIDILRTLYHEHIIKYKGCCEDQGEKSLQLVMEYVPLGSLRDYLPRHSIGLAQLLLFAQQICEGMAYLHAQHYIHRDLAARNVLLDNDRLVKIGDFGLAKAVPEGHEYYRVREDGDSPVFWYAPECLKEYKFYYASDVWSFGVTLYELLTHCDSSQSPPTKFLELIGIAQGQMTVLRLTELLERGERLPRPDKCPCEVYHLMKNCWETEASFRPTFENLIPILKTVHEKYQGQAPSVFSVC
Ribosomal protein S6 kinase beta-1, sequence (P23443 whole entry): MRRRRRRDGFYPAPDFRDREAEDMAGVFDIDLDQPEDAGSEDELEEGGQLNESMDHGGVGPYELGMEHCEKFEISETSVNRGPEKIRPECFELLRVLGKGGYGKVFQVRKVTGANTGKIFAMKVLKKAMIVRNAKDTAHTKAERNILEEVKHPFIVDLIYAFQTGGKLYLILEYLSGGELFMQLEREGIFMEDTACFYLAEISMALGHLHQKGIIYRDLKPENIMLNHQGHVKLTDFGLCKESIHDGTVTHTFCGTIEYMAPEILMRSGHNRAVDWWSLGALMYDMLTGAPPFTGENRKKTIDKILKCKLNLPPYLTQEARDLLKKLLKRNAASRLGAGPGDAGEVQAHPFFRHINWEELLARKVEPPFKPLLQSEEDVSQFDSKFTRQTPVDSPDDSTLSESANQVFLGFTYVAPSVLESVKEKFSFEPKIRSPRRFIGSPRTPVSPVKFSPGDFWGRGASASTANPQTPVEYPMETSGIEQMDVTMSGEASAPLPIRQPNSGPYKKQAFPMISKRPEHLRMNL

Structure (SMILES): Cn1cc(-c2cnc3ccc4ccc(CS(=O)(=O)NCc5ccccn5)cc4c(=O)c3c2)cn1 [MK-8033]
Kd [1]: > 30 µM (inactive) | Kd [2]: > 30 µM (inactive) | Kd [3]: > 30 µM (inactive) | Kd [4]: > 30 µM (inactive) | Kd [5]: > 30 µM (inactive)

Structure (SMILES): Cn1cc(C2=C(c3cn(C4CCN(Cc5ccccn5)CC4)c4ccccc34)C(=O)NC2=O)c2ccccc21 [ENZASTAURIN]
Kd [6]: > 30 µM (inactive)

Structure (SMILES): CC(C)(C)c1nc(-c2cccc(NS(=O)(=O)c3c(F)cccc3F)c2F)c(-c2ccnc(N)n2)s1 [DABRAFENIB]
Kd [1]: > 30 µM (inactive) | Kd [2]: > 30 µM (inactive) | Kd [6]: > 30 µM (inactive) | Kd [4]: > 30 µM (inactive)

Structure (SMILES): Cc1nc2cc(-n3ncc(C(=O)c4cc5ccccc5[nH]4)c3N)ccc2[nH]1 [FGFR INHIBITOR DEBIO 1347]
Kd [1]: > 30 µM (inactive) | Kd [2]: > 30 µM (inactive) | Kd [3]: > 30 µM (inactive) | Kd [6]: > 30 µM (inactive) | Kd [4]: > 30 µM (inactive)

Structure (SMILES): CCn1cc(-c2ccnc3[nH]c(-c4cccc(CN(C)C)c4)cc23)c(-c2ccc(NC(=O)N(C)C)cc2)n1 [GSK-1070916]
Kd [1]: > 30 µM (inactive) | Kd [2]: > 30 µM (inactive) | Kd [6]: > 30 µM (inactive) | Kd [4]: > 30 µM (inactive)

Structure (SMILES): CCNC(=O)C#Cc1ccc2c(c1)NC(=O)/C2=C(\Nc1ccc(CN(C)C)cc1)c1ccccc1
Kd [1]: > 30 µM (inactive) | Kd [2]: 0.885 µM (active) | Kd [3]: > 30 µM (inactive) | Kd [6]: > 30 µM (inactive) | Kd [5]: > 30 µM (inactive)

Structure (SMILES): COc1cc(Nc2ncc3c(n2)-c2ccc(Cl)cc2C(c2c(F)cccc2OC)=NC3)ccc1C(=O)O [ALISERTIB]
Kd [1]: > 30 µM (inactive) | Kd [2]: > 30 µM (inactive) | Kd [6]: > 30 µM (inactive) | Kd [4]: > 30 µM (inactive)

Structure (SMILES): O=C(Nc1cc(C(F)(F)F)cc(C(F)(F)F)c1)c1cc(Cl)ccc1O [IMD-0354]
Kd [1]: > 30 µM (inactive) | Kd [2]: > 30 µM (inactive) | Kd [3]: > 30 µM (inactive) | Kd [4]: > 30 µM (inactive)

Structure (SMILES): Cc1cc(C(=O)NOCCO)c(Nc2ccc(I)cc2F)n(C)c1=O [AZD-8330]
Kd [1]: > 30 µM (inactive) | Kd [2]: > 30 µM (inactive) | Kd [3]: > 30 µM (inactive) | Kd [6]: > 30 µM (inactive) | Kd [4]: > 30 µM (inactive)

Structure (SMILES): C#Cc1cccc(Nc2ncnc3cc(OC)c(OCCCCCCC(=O)NO)cc23)c1 [CUDC-101]
Kd [1]: > 30 µM (inactive) | Kd [2]: > 30 µM (inactive) | Kd [3]: > 30 µM (inactive) | Kd [4]: > 30 µM (inactive) | Kd [5]: > 30 µM (inactive)

Structure (SMILES): CCCCCCCCCCCCCCCCCCOP(=O)([O-])OC1CC[N+](C)(C)CC1 [PERIFOSINE]
Kd [1]: > 30 µM (inactive) | Kd [2]: > 30 µM (inactive) | Kd [3]: > 30 µM (inactive) | Kd [6]: > 30 µM (inactive) | Kd [4]: > 30 µM (inactive)

Structure (SMILES): O=C(Nc1nc2cccc(-c3ccc(CN4CCS(=O)(=O)CC4)cc3)n2n1)C1CC1 [FILGOTINIB]
Kd [1]: > 30 µM (inactive) | Kd [2]: > 30 µM (inactive) | Kd [6]: > 30 µM (inactive) | Kd [4]: > 30 µM (inactive) | Kd [5]: > 30 µM (inactive)

Structure (SMILES): Cc1[nH]c(/C=C2\C(=O)Nc3ccccc32)c(C)c1CCC(=O)O [ORANTINIB]
Kd [1]: > 30 µM (inactive) | Kd [2]: > 30 µM (inactive) | Kd [6]: > 30 µM (inactive)

Structure (SMILES): CNC(=O)c1ccccc1Sc1ccc2c(/C=C/c3ccccn3)n[nH]c2c1 [AXITINIB]
Kd [6]: > 30 µM (inactive)

Structure (SMILES): C[C@@H](Oc1cc(-n2cnc3ccc(CN4CCN(C)CC4)cc32)sc1C(N)=O)c1ccccc1C(F)(F)F [GSK-461364]
Kd [6]: > 30 µM (inactive)

Structure (SMILES): NC(=O)Nc1cc(-c2cccc(F)c2)sc1C(=O)N[C@H]1CCCNC1 [AZD-7762]
Kd [1]: > 30 µM (inactive) | Kd [2]: 2.61 µM (active) | Kd [3]: > 30 µM (inactive) | Kd [6]: > 30 µM (inactive) | Kd [5]: > 30 µM (inactive)

Structure (SMILES): O=C(Nc1c[nH]nc1-c1nc2cc(CN3CCOCC3)ccc2[nH]1)NC1CC1 [AT-9283]
Kd [1]: > 30 µM (inactive) | Kd [6]: > 30 µM (inactive) | Kd [4]: > 30 µM (inactive) | Kd [5]: 0.117 µM (active)

Second part, the compound after the results:

Kd [1]: > 30 µM (inactive) | Kd [2]: > 30 µM (inactive) | Kd [3]: > 30 µM (inactive) | Kd [6]: > 30 µM (inactive) | Kd [4]: > 30 µM (inactive)
Structure (SMILES): C[C@@H](N)c1ccc(C(=O)Nc2ccnc3[nH]ccc23)cc1 [Y-39983]

Kd [1]: > 30 µM (inactive) | Kd [2]: > 30 µM (inactive) | Kd [3]: > 30 µM (inactive) | Kd [6]: > 30 µM (inactive) | Kd [5]: > 30 µM (inactive)
Structure (SMILES): CO[C@H]1C[C@@H]2CC[C@@H](C)[C@@](O)(O2)C(=O)C(=O)N2CCCC[C@H]2C(=O)O[C@H]([C@H](C)C[C@@H]2CC[C@@H](O)[C@H](OC)C2)CC(=O)[C@H](C)/C=C(\C)[C@@H](O)[C@@H](OC)C(=O)[C@H](C)C[C@H](C)/C=C/C=C/C=C/1C [SIROLIMUS]

Kd [6]: > 30 µM (inactive)
Structure (SMILES): N#CC[C@H](C1CCCC1)n1cc(-c2ncnc3[nH]ccc23)cn1 [RUXOLITINIB]

Kd [1]: > 30 µM (inactive) | Kd [2]: > 30 µM (inactive) | Kd [3]: > 30 µM (inactive) | Kd [6]: > 30 µM (inactive) | Kd [5]: > 30 µM (inactive)
Structure (SMILES): O=C1NC(=O)[C@@H](c2cn3c4c(cccc24)CCC3)[C@@H]1c1c[nH]c2ccccc12 [TIVANTINIB]

Kd [1]: > 30 µM (inactive) | Kd [2]: 2.32 µM (active) | Kd [6]: > 30 µM (inactive) | Kd [4]: 0.024 µM (active)
Structure (SMILES): CC(=O)NCC(=O)N1[C@@H]2CC[C@H]1c1ccc(Nc3ncc(C(F)(F)F)c(NC4CCC4)n3)cc12 [PF-03814735]

Kd [1]: > 30 µM (inactive) | Kd [2]: 1.23 µM (active) | Kd [3]: > 30 µM (inactive) | Kd [6]: > 30 µM (inactive) | Kd [4]: > 30 µM (inactive)
Structure (SMILES): Cc1nc(Nc2n[nH]c3c2CN(C(=O)N[C@H](CN(C)C)c2ccccc2)C3(C)C)c2sccc2n1 [PF-03758309]

Kd [1]: > 30 µM (inactive) | Kd [2]: > 30 µM (inactive) | Kd [3]: > 30 µM (inactive) | Kd [6]: > 30 µM (inactive) | Kd [5]: > 30 µM (inactive)
Structure (SMILES): C[C@@H](NC(=O)c1ncnc(N)c1Cl)c1ncc(C(=O)Nc2cc(C(F)(F)F)c(Cl)cn2)s1 [TOVORAFENIB]

Kd [6]: > 30 µM (inactive)
Structure (SMILES): O=C(NOCCO)c1cc(CN2OCCCC2=O)c(F)c(F)c1Nc1ccc(I)cc1F [RO-4987655]

Kd [1]: > 30 µM (inactive) | Kd [2]: > 30 µM (inactive) | Kd [6]: > 30 µM (inactive) | Kd [4]: > 30 µM (inactive)
Structure (SMILES): NC(=O)c1c(OCc2c(F)cc(Br)cc2F)nsc1NC(=O)NCCCCN1CCCC1 [OSI-632]
